pIC50: −log10 of the molar value.
Tests used:
[1] = tested on: influenza A(H3N2) virus A/YOKOHAMA/87/2019 (PA I38T); assay type: cell-based
[2] = tested on: influenza A(H3N2) virus A/YOKOHAMA/88/2019 (PA I38T); assay type: cell-based
[3] = target: neuraminidase (NA) of influenza A(H3N2) virus A/YOKOHAMA/87/2019 (Influenza A virus, UniProt A0A193ACB1); assay type: biochemical
[4] = target: neuraminidase (NA) of influenza A(H3N2) virus A/YOKOHAMA/88/2019 (Influenza A virus, UniProt A0A193ACB1); assay type: biochemical

## CCC(CC)[C@H](NC(C)=O)[C@@H]1[C@H](O)[C@@H](C(=O)O)C[C@H]1N=C(N)N [Peramivir, peramivir]
[3]
  pIC50: 9.80
[4]
  pIC50: 9.89

Source: article PMC6440584 (Eurosurveillance, 2019)
